Test results from the NIST ThermoML archive (doi:10.1016/j.jct.2003.11.008).

Tests used:
[1] = excess molar enthalpy (molar enthalpy of mixing); xn = mol fraction of the nth substance listed; details: 318.15 K, 101.3 kPa, Liquid
[2] = xn = mol fraction of the nth substance listed; details: 318.15 K, 101.3 kPa, Liquid

CCCOC(C)=O [propyl ethanoate] + CCCCCCCCC
Details | excess molar enthalpy, [1] [kcal/mol] | excess molar volume, [2] [m3/mol]
x1 = 0.0866 | 0.109 | 3.76e-07
x1 = 0.1486 | – | 5.74e-07
x1 = 0.1795 | 0.191 | –
x1 = 0.2182 | – | 7.77e-07
x1 = 0.2657 | 0.255 | –
x1 = 0.2774 | – | 8.96e-07
x1 = 0.344 | 0.294 | –
x1 = 0.3451 | – | 9.99e-07
x1 = 0.4053 | – | 1.075e-06
x1 = 0.4115 | 0.318 | –
x1 = 0.4561 | – | 1.101e-06
x1 = 0.4797 | 0.33 | –
x1 = 0.5089 | – | 1.111e-06
x1 = 0.5358 | 0.328 | –
x1 = 0.5631 | – | 1.094e-06
x1 = 0.5815 | 0.321 | –
x1 = 0.6115 | – | 1.058e-06
x1 = 0.6251 | 0.307 | –
x1 = 0.6577 | – | 1.012e-06
x1 = 0.6703 | 0.287 | –
x1 = 0.7051 | – | 9.38e-07
x1 = 0.7182 | 0.262 | –
x1 = 0.7328 | – | 8.95e-07
x1 = 0.7662 | 0.233 | –
x1 = 0.8182 | 0.197 | –
x1 = 0.8254 | – | 6.64e-07
x1 = 0.8684 | 0.155 | –
x1 = 0.8966 | – | 4.35e-07
x1 = 0.9158 | 0.105 | –
x1 = 0.9496 | – | 2.29e-07
x1 = 0.9598 | 0.0553 | –

CCCCCCCCC [nonane] + CCOC(C)=O
Details | excess molar enthalpy [kcal/mol] | excess molar volume [m3/mol]
[1], x2 = 0.0596 | 0.0869 | –
[1], x2 = 0.131 | 0.172 | –
[1], x2 = 0.2117 | 0.253 | –
[1], x2 = 0.295 | 0.316 | –
[1], x2 = 0.3664 | 0.362 | –
[1], x2 = 0.436 | 0.394 | –
[1], x2 = 0.4899 | 0.406 | –
[1], x2 = 0.5447 | 0.408 | –
[1], x2 = 0.5881 | 0.399 | –
[1], x2 = 0.6166 | 0.391 | –
[1], x2 = 0.629 | 0.383 | –
[1], x2 = 0.6629 | 0.373 | –
[1], x2 = 0.7061 | 0.347 | –
[1], x2 = 0.752 | 0.32 | –
[1], x2 = 0.7991 | 0.277 | –
[1], x2 = 0.8421 | 0.235 | –
[1], x2 = 0.8875 | 0.177 | –
[1], x2 = 0.9312 | 0.118 | –
[1], x2 = 0.9672 | 0.0591 | –
[2], x2 = 0.0916 | – | 4.94e-07
[2], x2 = 0.1769 | – | 8.53e-07
[2], x2 = 0.2442 | – | 1.049e-06
[2], x2 = 0.3108 | – | 1.228e-06
[2], x2 = 0.3462 | – | 1.289e-06
[2], x2 = 0.4363 | – | 1.418e-06
[2], x2 = 0.4938 | – | 1.446e-06
[2], x2 = 0.5469 | – | 1.447e-06
[2], x2 = 0.5934 | – | 1.426e-06
[2], x2 = 0.6418 | – | 1.361e-06
[2], x2 = 0.6869 | – | 1.292e-06
[2], x2 = 0.7308 | – | 1.202e-06
[2], x2 = 0.7614 | – | 1.142e-06
[2], x2 = 0.8417 | – | 8.49e-07
[2], x2 = 0.9044 | – | 5.78e-07
[2], x2 = 0.9558 | – | 2.94e-07
